From article PMC7586344, “Discovery of Novel pERK1/2- or β-Arrestin-Preferring 5-HT1A Receptor-Biased Agonists: Diversified Therapeutic-like versus Side Effect Profile” (Journal of Medicinal Chemistry, 2020)

Columns and labels:
[1] = target: T1, α1D (Homo sapiens, UniProt P25100); test: Off-target binding screen; settings: read-out: % Inhibition of Control Specific Binding; for inhibition at 0.01 µM: 10 nM; for inhibition at 0.1 µM: 100 nM; for inhibition at 1 µM: 1000 nM
T1 construct: Eurofins Pharma Discovery Services (contract screen)
T1 sequence (P25100 1-572): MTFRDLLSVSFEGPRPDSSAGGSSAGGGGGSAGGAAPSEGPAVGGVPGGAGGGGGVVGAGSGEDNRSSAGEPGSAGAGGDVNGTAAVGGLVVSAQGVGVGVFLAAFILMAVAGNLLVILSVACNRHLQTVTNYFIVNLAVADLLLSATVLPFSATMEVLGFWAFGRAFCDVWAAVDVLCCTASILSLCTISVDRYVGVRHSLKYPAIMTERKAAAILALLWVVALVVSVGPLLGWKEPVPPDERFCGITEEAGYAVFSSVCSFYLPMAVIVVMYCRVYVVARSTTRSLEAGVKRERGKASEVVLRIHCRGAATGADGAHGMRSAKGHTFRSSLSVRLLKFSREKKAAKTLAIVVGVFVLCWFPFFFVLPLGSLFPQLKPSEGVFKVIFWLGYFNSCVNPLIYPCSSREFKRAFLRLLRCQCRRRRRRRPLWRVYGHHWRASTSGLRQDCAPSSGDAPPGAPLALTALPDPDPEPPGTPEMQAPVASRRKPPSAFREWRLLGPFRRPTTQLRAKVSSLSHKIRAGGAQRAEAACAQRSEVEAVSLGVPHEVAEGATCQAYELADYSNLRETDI

[2] = target: T2, SERT (Homo sapiens, UniProt P31645); test: Off-target binding screen; settings: 1000 nM, read-out: % Inhibition of Control Specific Binding
T2 construct: Eurofins Pharma Discovery Services
T2 sequence (P31645 whole entry, species assumed): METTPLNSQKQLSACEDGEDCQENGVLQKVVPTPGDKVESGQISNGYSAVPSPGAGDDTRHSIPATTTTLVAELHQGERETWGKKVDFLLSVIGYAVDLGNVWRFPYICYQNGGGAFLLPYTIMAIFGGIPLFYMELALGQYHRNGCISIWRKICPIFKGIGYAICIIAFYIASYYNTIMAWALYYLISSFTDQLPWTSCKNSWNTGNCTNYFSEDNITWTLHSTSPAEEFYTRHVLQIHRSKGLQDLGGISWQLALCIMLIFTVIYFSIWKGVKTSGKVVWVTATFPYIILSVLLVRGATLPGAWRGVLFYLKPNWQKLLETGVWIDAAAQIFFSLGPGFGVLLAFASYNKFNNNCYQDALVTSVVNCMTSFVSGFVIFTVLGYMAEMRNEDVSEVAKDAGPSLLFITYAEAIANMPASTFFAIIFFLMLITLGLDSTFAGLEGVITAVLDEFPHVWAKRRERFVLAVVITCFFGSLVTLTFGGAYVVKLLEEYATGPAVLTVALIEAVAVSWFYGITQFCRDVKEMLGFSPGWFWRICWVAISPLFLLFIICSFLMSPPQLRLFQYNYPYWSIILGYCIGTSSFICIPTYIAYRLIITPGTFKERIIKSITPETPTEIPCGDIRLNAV

[3] = target: T3, BZDp (TSPO) (Homo sapiens, UniProt P30536); test: Off-target binding screen; settings: 1000 nM, read-out: % Inhibition of Control Specific Binding
T3 construct: Eurofins Pharma Discovery Services (contract assay)
T3 sequence (P30536 whole entry): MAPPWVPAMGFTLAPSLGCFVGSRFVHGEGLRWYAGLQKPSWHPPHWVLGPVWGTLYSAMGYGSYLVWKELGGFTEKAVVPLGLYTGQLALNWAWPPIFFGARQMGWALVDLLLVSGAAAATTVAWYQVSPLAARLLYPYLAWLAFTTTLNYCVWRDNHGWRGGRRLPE

[4] = target: T4, M1 (Homo sapiens, UniProt P11229); test: Off-target binding screen; settings: 1000 nM, read-out: % Inhibition of Control Specific Binding
T4 construct: Eurofins Pharma Discovery Services (contract assay)
T4 sequence (P11229 1-460): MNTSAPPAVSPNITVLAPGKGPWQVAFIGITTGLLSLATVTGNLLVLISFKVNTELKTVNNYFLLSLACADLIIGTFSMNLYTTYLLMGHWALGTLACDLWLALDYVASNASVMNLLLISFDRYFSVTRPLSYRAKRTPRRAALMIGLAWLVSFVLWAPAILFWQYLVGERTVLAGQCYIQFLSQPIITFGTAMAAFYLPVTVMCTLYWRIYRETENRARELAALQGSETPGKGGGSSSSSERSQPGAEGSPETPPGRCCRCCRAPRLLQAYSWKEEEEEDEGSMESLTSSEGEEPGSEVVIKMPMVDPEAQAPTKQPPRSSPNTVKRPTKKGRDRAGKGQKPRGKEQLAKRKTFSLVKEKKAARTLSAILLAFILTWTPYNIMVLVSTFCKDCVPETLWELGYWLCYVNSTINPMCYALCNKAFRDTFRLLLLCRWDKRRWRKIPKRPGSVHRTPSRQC

[5] = target: T5, M3 (Homo sapiens, UniProt P20309); test: Off-target binding screen; settings: 1000 nM, read-out: % Inhibition of Control Specific Binding
T5 construct: Eurofins Pharma Discovery Services (contract assay)
T5 sequence (P20309 whole entry): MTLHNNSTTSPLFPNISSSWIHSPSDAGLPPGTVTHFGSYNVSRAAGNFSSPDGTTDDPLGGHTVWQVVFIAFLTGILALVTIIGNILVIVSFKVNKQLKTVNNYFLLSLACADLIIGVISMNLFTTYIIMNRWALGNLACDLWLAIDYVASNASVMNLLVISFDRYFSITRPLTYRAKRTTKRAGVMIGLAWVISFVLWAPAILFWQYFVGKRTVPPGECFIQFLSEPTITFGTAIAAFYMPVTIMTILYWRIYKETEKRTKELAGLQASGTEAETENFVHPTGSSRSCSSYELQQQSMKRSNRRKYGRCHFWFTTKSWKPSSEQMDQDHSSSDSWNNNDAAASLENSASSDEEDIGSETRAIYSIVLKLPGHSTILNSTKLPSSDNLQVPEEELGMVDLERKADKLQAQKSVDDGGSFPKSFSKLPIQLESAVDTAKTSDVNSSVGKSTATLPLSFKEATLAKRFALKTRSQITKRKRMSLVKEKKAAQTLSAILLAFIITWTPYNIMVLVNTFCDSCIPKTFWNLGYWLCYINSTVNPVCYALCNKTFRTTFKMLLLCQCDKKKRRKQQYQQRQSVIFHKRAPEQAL

[6] = target: T6, 5-HT1D (Homo sapiens, UniProt P28221); test: Off-target binding screen; settings: read-out: % Inhibition of Control Specific Binding; for inhibition at 1 µM: 1000 nM
T6 construct: Eurofins Pharma Discovery Services (contract screen)
T6 sequence (P28221 whole entry, species assumed): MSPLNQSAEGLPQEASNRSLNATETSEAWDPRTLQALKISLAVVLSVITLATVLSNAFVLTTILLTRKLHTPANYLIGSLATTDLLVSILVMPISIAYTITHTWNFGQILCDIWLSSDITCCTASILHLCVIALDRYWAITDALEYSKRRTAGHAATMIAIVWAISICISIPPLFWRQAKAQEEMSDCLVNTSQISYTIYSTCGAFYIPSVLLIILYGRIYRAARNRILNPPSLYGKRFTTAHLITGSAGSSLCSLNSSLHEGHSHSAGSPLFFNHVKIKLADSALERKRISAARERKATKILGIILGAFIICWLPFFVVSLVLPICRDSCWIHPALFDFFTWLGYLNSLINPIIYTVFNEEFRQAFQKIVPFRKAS

[7] = target: T7, 5-HT7 (Homo sapiens, UniProt P34969); test: Off-target binding screen; settings: read-out: % Inhibition of Control Specific Binding; for inhibition at 1 µM: 1000 nM
T7 construct: Eurofins Pharma Discovery Services (contract screen)
T7 sequence (P34969 whole entry, species assumed): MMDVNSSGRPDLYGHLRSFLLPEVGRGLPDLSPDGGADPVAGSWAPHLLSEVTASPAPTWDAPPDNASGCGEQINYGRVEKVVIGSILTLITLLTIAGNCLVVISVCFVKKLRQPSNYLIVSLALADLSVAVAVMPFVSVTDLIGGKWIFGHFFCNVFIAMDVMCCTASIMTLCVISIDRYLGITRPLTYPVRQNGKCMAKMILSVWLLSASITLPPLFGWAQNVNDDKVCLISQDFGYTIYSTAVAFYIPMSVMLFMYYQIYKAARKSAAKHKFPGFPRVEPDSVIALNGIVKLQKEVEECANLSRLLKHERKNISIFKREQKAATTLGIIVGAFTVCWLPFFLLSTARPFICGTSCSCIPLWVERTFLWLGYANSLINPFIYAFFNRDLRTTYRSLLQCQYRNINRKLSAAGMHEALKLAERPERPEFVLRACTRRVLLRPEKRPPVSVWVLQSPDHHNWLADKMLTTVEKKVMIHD

[8] = target: T8, M5 (Homo sapiens, UniProt P08912); test: Off-target binding screen; settings: read-out: % Inhibition of Control Specific Binding; for inhibition at 1 µM: 1000 nM
T8 construct: Eurofins Pharma Discovery Services (contract assay)
T8 sequence (P08912 1-532): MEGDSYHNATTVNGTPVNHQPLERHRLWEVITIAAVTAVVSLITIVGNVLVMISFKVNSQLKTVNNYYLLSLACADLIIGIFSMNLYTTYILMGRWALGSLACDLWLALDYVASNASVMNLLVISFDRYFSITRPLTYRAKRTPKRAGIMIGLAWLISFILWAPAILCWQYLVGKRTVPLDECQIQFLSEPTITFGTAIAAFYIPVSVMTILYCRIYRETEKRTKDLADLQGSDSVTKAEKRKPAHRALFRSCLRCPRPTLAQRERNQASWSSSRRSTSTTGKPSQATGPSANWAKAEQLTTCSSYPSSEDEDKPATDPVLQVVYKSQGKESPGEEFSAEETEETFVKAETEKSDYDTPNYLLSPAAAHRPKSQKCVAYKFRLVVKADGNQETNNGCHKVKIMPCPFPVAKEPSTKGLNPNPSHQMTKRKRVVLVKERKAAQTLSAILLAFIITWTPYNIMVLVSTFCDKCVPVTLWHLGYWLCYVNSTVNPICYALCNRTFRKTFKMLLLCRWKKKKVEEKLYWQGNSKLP

[9] = target: T9, hERG channel (Homo sapiens, UniProt Q12809); test: hERG-CHO automated patch-clamp; format: cell-based
T9 construct: host or cells: CHO (hERG-CHO)

[10] = target: T10, 5-HT1B (Homo sapiens, UniProt P28222); test: Off-target binding screen; settings: read-out: % Inhibition of Control Specific Binding; for inhibition at 1 µM: 1000 nM
T10 construct: Eurofins Pharma Discovery Services (contract screen)
T10 sequence (P28222 whole entry, species assumed): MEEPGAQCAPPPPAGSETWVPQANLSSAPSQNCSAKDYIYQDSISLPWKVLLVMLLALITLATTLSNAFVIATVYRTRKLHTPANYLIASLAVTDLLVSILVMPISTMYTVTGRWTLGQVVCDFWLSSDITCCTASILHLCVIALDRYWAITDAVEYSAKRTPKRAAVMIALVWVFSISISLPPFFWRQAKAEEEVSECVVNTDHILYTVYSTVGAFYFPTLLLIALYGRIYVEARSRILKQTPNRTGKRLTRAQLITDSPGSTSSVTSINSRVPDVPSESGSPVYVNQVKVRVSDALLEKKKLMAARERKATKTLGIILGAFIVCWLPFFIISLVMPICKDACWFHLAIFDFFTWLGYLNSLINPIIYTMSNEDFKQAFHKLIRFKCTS

[11] = target: T11, M2 (Homo sapiens, UniProt P08172); test: Off-target binding screen; settings: 1000 nM, read-out: % Inhibition of Control Specific Binding
T11 construct: Eurofins Pharma Discovery Services (contract assay)
T11 sequence (P08172 1-466): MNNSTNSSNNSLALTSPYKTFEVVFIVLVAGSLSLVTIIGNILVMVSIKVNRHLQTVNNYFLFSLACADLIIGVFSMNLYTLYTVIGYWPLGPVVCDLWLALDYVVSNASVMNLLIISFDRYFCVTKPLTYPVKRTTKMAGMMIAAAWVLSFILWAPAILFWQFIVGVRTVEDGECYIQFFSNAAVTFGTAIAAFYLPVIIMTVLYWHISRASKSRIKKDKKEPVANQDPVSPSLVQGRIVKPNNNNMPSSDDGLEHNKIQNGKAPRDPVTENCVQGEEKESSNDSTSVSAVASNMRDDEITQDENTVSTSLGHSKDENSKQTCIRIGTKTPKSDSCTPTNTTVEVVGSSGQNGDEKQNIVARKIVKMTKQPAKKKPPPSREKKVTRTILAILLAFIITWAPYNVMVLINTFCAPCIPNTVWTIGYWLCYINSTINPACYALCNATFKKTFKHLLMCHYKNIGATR

[12] = target: T12, D1 (Homo sapiens, UniProt P21728); test: Off-target binding screen; settings: read-out: % Inhibition of Control Specific Binding; for inhibition at 1 µM: 1000 nM
T12 construct: Eurofins Pharma Discovery Services (contract assay)
T12 sequence (P21728 whole entry): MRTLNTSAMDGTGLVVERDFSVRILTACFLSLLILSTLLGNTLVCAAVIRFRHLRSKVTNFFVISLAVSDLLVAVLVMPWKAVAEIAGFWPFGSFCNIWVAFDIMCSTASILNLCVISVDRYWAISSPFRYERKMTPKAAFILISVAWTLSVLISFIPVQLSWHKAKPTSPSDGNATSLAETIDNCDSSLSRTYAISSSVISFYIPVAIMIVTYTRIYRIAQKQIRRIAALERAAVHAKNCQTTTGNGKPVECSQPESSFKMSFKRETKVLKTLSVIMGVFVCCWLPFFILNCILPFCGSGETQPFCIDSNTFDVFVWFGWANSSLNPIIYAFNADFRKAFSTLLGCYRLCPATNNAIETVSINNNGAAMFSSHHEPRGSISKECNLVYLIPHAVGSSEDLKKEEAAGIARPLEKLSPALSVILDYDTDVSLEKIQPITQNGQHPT

[13] = target: T13, 5-HT5A (Homo sapiens, UniProt P47898); test: Off-target binding screen; settings: read-out: % Inhibition of Control Specific Binding; for inhibition at 1 µM: 1000 nM
T13 construct: Eurofins Pharma Discovery Services (contract screen)
T13 sequence (P47898 whole entry, species assumed): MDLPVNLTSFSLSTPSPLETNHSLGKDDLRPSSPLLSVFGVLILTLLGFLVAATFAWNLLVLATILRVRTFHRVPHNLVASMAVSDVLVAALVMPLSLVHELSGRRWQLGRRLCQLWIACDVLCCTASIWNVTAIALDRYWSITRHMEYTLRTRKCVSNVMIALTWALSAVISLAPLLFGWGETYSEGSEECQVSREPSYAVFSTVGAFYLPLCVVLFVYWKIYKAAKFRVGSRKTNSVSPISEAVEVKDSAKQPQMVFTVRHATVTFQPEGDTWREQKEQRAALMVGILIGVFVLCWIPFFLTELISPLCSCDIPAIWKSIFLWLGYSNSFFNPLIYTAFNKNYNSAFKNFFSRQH

[14] = target: T14, β2 (Homo sapiens, UniProt P07550); test: Off-target binding screen; settings: 1000 nM, read-out: % Inhibition of Control Specific Binding
T14 construct: Eurofins Pharma Discovery Services (contract screen)
T14 sequence (P07550 whole entry): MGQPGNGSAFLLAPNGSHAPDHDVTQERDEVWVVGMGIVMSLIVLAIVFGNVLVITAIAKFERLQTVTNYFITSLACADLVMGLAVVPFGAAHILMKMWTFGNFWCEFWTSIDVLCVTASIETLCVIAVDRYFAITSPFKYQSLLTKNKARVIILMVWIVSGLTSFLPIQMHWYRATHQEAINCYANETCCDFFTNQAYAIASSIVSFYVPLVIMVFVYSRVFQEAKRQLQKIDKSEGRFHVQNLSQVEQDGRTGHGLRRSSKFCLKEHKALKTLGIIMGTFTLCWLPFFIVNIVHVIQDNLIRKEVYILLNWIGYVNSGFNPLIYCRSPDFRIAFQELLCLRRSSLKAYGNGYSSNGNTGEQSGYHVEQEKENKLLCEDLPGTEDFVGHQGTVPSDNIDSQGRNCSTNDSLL

Compound | inhibition at 0.01 µM [1] | inhibition at 0.1 µM [1] | inhibition at 1 µM [2] | inhibition at 1 µM [3] | inhibition at 1 µM [4] | inhibition at 1 µM [5] | inhibition at 1 µM [8] | % Inhibition of Tail Current in hERG-CHO ([9]; 0,1 µM) | % Inhibition of Tail Current in hERG-CHO ([9]; 1 µM) | % Inhibition of Tail Current in hERG-CHO ([9]; 10 µM) | inhibition at 1 µM [10] | inhibition at 1 µM [11] | inhibition at 1 µM [12] | inhibition at 1 µM [13] | inhibition at 1 µM [14] | inhibition at 1 µM [1] | inhibition at 1 µM [6] | inhibition at 1 µM [7] | also measured
O=C(c1ccc(F)c(Cl)c1)N1CCC(F)(CNCCOc2cccc3[nH]ccc23)CC1 [Compound 56, (4-(((2-((1H-Indol-4-yl)oxy)ethyl)amino)methyl)-4-fluoropiperidin-1-yl)(3-chloro-4-fluorophenyl)methanone] | 23% | 63% | 22% | -6% | -10% | 1% | 54% | 0.3% | 6.4% | 21.1% | 63% | -8% | 89% | 53% | 9% | – | – | – | inhibition at 0.001 µM ([1]; 1 nM): -7%; inhibition at 0.001 µM ([6]; 1 nM): -14%; inhibition at 0.01 µM ([6]; 10 nM): 27%; inhibition at 0.1 µM ([6]; 100 nM): 80%; inhibition at 0.001 µM ([7]; 1 nM): 5%; inhibition at 0.01 µM ([7]; 10 nM): 32%; inhibition at 0.1 µM ([7]; 100 nM): 68%; inhibition at 0.01 µM ([8]; 10 nM): 4%; inhibition at 0.1 µM ([8]; 100 nM): -3%; inhibition at 0.01 µM ([10]; 10 nM): 1%; inhibition at 0.1 µM ([10]; 100 nM): 17%; inhibition at 0.01 µM ([12]; 10 nM): 12%; inhibition at 0.1 µM ([12]; 100 nM): 52%; inhibition at 0.01 µM ([13]; 10 nM): -18%; inhibition at 0.1 µM ([13]; 100 nM): 12%
O=C(c1ccc(F)c(Cl)c1)N1CCC(F)(CNCCOc2ccccc2)CC1 [Compound 3] | 19% | 40% | 8% | -10% | -2% | 1% | 3% | 1.0% | 14.2% | 64.9% | -7% | -20% | 30% | -1% | 2% | 84% | 48% | 30% | –
CNc1ccccc1OCCNCC1(F)CCN(C(=O)c2ccc(F)c(Cl)c2)CC1 [Compound 44, (3-Chloro-4-fluorophenyl)(4-fluoro-4-(((2-(2-(methylamino)phenoxy)ethyl)amino)methyl)piperidin-1-yl)methanone] | -1% | 32% | 18% | -10% | -6% | 9% | -1% | – | 17.5% | – | 0% | -12% | 36% | 2% | -3% | 80% | 38% | 11% | –
